Source: patent US20220324835A1 (Nurix Therapeutics, Inc., priority 2018, published 2022)

Legend:
Cbl-b [1] = target: T1, Cbl-b (Homo sapiens, UniProt Q13191); experiment: Cbl-b inhibition assay (Cbl-b activity assay, FRET, Biological Example 1; 100 mM NaCl, 60 nM Src kinase); assay type: biochemical; settings: upper bound stated in text lists; read-out: IC50 values in the Cbl-b inhibition assay of Biological Example 1
Method in brief: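 Here, the E2 UbcH5B, irreversibly linked to Bodipy-fluorescein ubiquitin, binds Cbl-b once Src kinase phosphorylates it; Cbl-b carries an N-terminal biotinylated Avi-tag captured by streptavidin-terbium. An absent FRET signal indicates inhibition.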

T-cell [2] = experiment: IL-2 secretion from T-cells co-stimulated with anti-CD3 and anti-CD28 antibody (Biological Example 2); assay type: cell-based, human; settings: Homo sapiens, T-cell, fold change over baseline (anti-CD3/anti-CD28 stimulated T-cells without inhibitor), read-out: IL-2 secretion Anti-CD3/Anti-CD28 stimulation; for fold induction at 0.3 µM: 0.3 μM Cbl-b inhibitor; for fold induction at 1 µM: 1 μM Cbl-b inhibitor
Method in brief: (§1)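 Values are fold-change over baseline: readings (IL-2 release, CD25 staining) from inhibitor-treated T-cells divided against untreated cells […]. No detailed procedure stated.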

T-cell [3] = experiment: CD25 cell surface staining on T-cells stimulated with anti-CD3 antibody alone (Biological Example 2); assay type: cell-based, human; settings: Homo sapiens, T-cell; 1 μM Cbl-b inhibitor; fold change over baseline (anti-CD3/anti-CD28 stimulated T-cells without inhibitor); read-out: CD25 staining Anti-CD3 stimulation
T-cell [4] = experiment: CD25 cell surface staining on T-cells co-stimulated with anti-CD3 and anti-CD28 antibody (Biological Example 2); assay type: cell-based, human; settings: Homo sapiens, T-cell, fold change over baseline (anti-CD3/anti-CD28 stimulated T-cells without inhibitor), read-out: CD25 staining Anti-CD3/Anti-CD28 stimulation; for fold induction at 0.3 µM: 0.3 μM Cbl-b inhibitor; for fold induction at 1 µM: 1 μM Cbl-b inhibitor
Method in brief: as §1

T-cell [5] = experiment: IL-2 secretion from T-cells stimulated with anti-CD3 antibody alone (Biological Example 2); assay type: cell-based, human; settings: Homo sapiens, T-cell; 1 μM Cbl-b inhibitor; fold change over baseline (anti-CD3/anti-CD28 stimulated T-cells without inhibitor); read-out: IL-2 secretion Anti-CD3 stimulation
Cbl-b [6] = target: T1, Cbl-b; experiment: Cbl-b activity assay (Cbl-b inhibition assay), TR-FRET of Cbl-b interaction with UbcH5B-Ub; assay type: biochemical; settings: assay buffer with 100 mM NaCl, 60 nM Src kinase; read-out: Cbl-b activity IC50
Method in brief: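 Compound-treated Cbl-b was incubated 1.5 h with Src kinase (60 nM final; 30 nM for asterisked values, which also used 50 mM instead of 100 mM NaCl), 1 mM ATP and 5 mM MgCl2. Binding to fluorescent Ub-loaded UbcH5B (C85K mutant) was then read by TR-FRET after 1 h more.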

T1 sequence (Q13191 36-427): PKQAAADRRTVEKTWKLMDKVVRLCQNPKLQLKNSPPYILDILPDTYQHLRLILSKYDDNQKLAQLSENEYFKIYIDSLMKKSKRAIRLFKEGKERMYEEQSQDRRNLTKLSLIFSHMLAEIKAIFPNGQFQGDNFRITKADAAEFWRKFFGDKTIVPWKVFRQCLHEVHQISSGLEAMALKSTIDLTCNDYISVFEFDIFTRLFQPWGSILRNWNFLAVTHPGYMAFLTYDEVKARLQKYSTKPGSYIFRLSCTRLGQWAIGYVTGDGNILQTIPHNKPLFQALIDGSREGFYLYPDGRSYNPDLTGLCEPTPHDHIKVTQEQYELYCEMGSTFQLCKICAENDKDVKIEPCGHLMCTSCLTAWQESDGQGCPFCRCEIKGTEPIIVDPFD

SMILES	IC50 (Cbl-b [1])	fold induction at 0.3 µM (T-cell [2])	fold induction at 1 µM (T-cell [2])	fold induction at 1 µM (T-cell [3])	fold induction at 0.3 µM (T-cell [4])	fold induction at 1 µM (T-cell [4])	fold induction at 1 µM (T-cell [5])	IC50 (Cbl-b [6])
Cn1cnnc1CC1(c2cccc(N3Cc4c(cc(CN5Cc6ccccc6C5)cc4C(F)(F)F)C3=O)c2)COC1 [Example 654, 6-(isoindolin-2-ylmethyl)-2-(3-(3-((4-methyl-4H-1,2,4-triazol-3-yl)methyl)oxetan-3-yl)phenyl)-4-(trifluoromethyl)isoindolin-1-one]	≤ 100 nM	5 to 7.5	> 7.5	> 1	1.31 to 1.5	1.31 to 1.5	> 0.201	< 100 nM
Cn1cnnc1CC1(c2cccc(N3Cc4c(cc(CN5Cc6ccc(F)cc6C5)cc4C(F)(F)F)C3=O)c2)COC1 [Example 655, 6-((5-fluoroisoindolin-2-yl)methyl)-2-(3-(3-((4-methyl-4H-1,2,4-triazol-3-yl)methyl)oxetan-3-yl)phenyl)-4-(trifluoromethyl)isoindolin-1-one]	≤ 100 nM	5 to 7.5	> 7.5	> 1	1.31 to 1.5	1.31 to 1.5	> 0.201	< 100 nM
COc1ccc2c(c1)CN(Cc1cc3c(c(C(F)(F)F)c1)CN(c1cccc(C4(Cc5nncn5C)COC4)c1)C3=O)C2 [Example 656, 6-((5-methoxyisoindolin-2-yl)methyl)-2-(3-(3-((4-methyl-4H-1,2,4-triazol-3-yl)methyl)oxetan-3-yl)phenyl)-4-(trifluoromethyl)isoindolin-1-one]	≤ 100 nM	> 7.5	> 7.5	> 1	1.31 to 1.5	1.31 to 1.5	> 0.201	< 100 nM
Cn1cnnc1CC1(c2cccc(N3Cc4c(cc(CN5Cc6cccnc6C5)cc4C(F)(F)F)C3=O)c2)COC1 [Example 660, 6-((5,7-dihydro-6H-pyrrolo[3,4-b]pyridin-6-yl)methyl)-2-(3-(3-((4-methyl-4H-1,2,4-triazol-3-yl)methyl)oxetan-3-yl)phenyl)-4-(trifluoromethyl)isoindolin-1-one]	≤ 100 nM	2.51 to 5	> 7.5	> 1	1.31 to 1.5	1.31 to 1.5	> 0.201	< 100 nM
Cn1cnnc1CC1(c2cccc(N3Cc4c(cc(CN5CC[C@H](c6ccccc6)C5)cc4C(F)(F)F)C3=O)c2)COC1 [Example 662a, (R)-2-(3-(3-((4-methyl-4H-1,2,4-triazol-3-yl)methyl)oxetan-3-yl)phenyl)-6-((3-phenylpyrrolidin-1-yl)methyl)-4-(trifluoromethyl)isoindolin-1-one]	≤ 100 nM	5 to 7.5	> 7.5	0.801 to 1	1.01 to 1.3	1.01 to 1.3	> 0.201	< 100 nM
C[C@H]1CN(Cc2cc3c(c(C(F)(F)F)c2)CN(c2cccc(C4(Cc5nncn5C)COC4)c2)C3=O)CCO1 [Example 663a, (S)-2-(3-(3-((4-methyl-4H-1,2,4-triazol-3-yl)methyl)oxetan-3-yl)phenyl)-6-((2-methylmorpholino)methyl)-4-(trifluoromethyl)isoindolin-1-one]	≤ 100 nM	5 to 7.5	> 7.5	> 1	1.31 to 1.5	1.31 to 1.5	> 0.201	< 100 nM
C[C@H](c1cc2c(c(C(F)(F)F)c1)CN(c1cccc(C3(Cc4nncn4C)COC3)c1)C2=O)N1CC(F)C1 [Example 668a, (R)-6-(1-(3-fluoroazetidin-1-yl)ethyl)-2-(3-(3-((4-methyl-4H-1,2,4-triazol-3-yl)methyl)oxetan-3-yl)phenyl)-4-(trifluoromethyl)isoindolin-1-one]	≤ 100 nM	2.51 to 5	5 to 7.5	> 1	1.31 to 1.5	1.51 to 1.75	0.101 to 0.15	< 100 nM
C[C@@H](c1cc2c(c(C(F)(F)F)c1)CN(c1cccc(C3(Cc4nncn4C)COC3)c1)C2=O)N1CC(F)C1 [Example 668b, (S)-6-(1-(3-fluoroazetidin-1-yl)ethyl)-2-(3-(3-((4-methyl-4H-1,2,4-triazol-3-yl)methyl)oxetan-3-yl)phenyl)-4-(trifluoromethyl)isoindolin-1-one]	≤ 100 nM	5 to 7.5	> 7.5	> 1	1.31 to 1.5	1.51 to 1.75	0.151 to 0.2	< 100 nM
Cc1cc(C(=O)Nc2cccc(C3([C@H](F)c4nncn4C)COC3)c2)nc(C2CC2)n1 [Example 669a, (S)-2-cyclopropyl-N-(3-(3-(fluoro(4-methyl-4H-1,2,4-triazol-3-yl)methyl)oxetan-3-yl)phenyl)-6-methylpyrimidine-4-carboxamide]	≤ 100 nM	2.51 to 5	5 to 7.5	> 1	1.01 to 1.3	1.01 to 1.3	0.151 to 0.2	< 100 nM
Cc1cc(C(=O)Nc2cccc(C3([C@@H](F)c4nncn4C)COC3)c2)nc(C2CC2)n1 [Example 669b, (R)-2-cyclopropyl-N-(3-(3-(fluoro(4-methyl-4H-1,2,4-triazol-3-yl)methyl)oxetan-3-yl)phenyl)-6-methylpyrimidine-4-carboxamide]	≤ 100 nM	2.51 to 5	> 7.5	> 1	1.01 to 1.3	1.31 to 1.5	> 0.201	< 100 nM
Cn1cnnc1[C@@H](F)C1(c2cccc(N3Cc4c(cc(CN5C6CCC5CC6)cc4C(F)(F)F)C3=O)c2)COC1 [Example 671a, (S)-6-((7-azabicyclo[2.2.1]heptan-7-yl)methyl)-2-(3-(3-(fluoro(4-methyl-4H-1,2,4-triazol-3-yl)methyl)oxetan-3-yl)phenyl)-4-(trifluoromethyl)isoindolin-1-one]	≤ 100 nM	2.51 to 5	5 to 7.5	0.601 to 0.8	1.51 to 1.75	> 1.76	> 0.201	< 100 nM
Cn1cnnc1[C@H](F)C1(c2cccc(N3Cc4c(cc(CN5C6CCC5CC6)cc4C(F)(F)F)C3=O)c2)COC1 [Example 671b, (R)-6-((7-azabicyclo[2.2.1]heptan-7-yl)methyl)-2-(3-(3-(fluoro(4-methyl-4H-1,2,4-triazol-3-yl)methyl)oxetan-3-yl)phenyl)-4-(trifluoromethyl)isoindolin-1-one]	≤ 100 nM	> 7.5	> 7.5	> 1	> 1.76	> 1.76	> 0.201	< 100 nM
Cn1cnnc1[C@@H](F)C1(c2cccc(N3Cc4c(cc(CN5[C@@H]6CC[C@H]5C[C@@H](F)C6)cc4C(F)(F)F)C3=O)c2)COC1 [Example 672a, 2-(3-(3-((S)-fluoro(4-methyl-4H-1,2,4-triazol-3-yl)methyl)oxetan-3-yl)-phenyl)-6-(((1R,3S,5S)-3-fluoro-8-azabicyclo[3.2.1]octan-8-yl)methyl)-4-(trifluoromethyl)isoindolin-1-one]	≤ 100 nM	2.51 to 5	> 7.5	0.801 to 1	> 1.76	> 1.76	> 0.201	< 100 nM
Cn1cnnc1[C@H](F)C1(c2cccc(N3Cc4c(cc(CN5[C@@H]6CC[C@H]5C[C@@H](F)C6)cc4C(F)(F)F)C3=O)c2)COC1 [Example 672b, 2-(3-(3-((R)-fluoro(4-methyl-4H-1,2,4-triazol-3-yl)methyl)oxetan-3-yl)phenyl)-6-(((1R,3R,5S)-3-fluoro-8-azabicyclo[3.2.1]octan-8-yl)methyl)-4-(trifluoromethyl)isoindolin-1-one]	≤ 100 nM	> 7.5	> 7.5	> 1	> 1.76	> 1.76	> 0.201	< 100 nM
